Converted amounts (≈) assume the structure as drawn.
Tested on: RPMI 8226
Assay: Multiple myeloma cell growth inhibition, MTT, 72 h
Assay type: cell-based
Settings: Homo sapiens
Method: Multiple myeloma cell lines: RPMI8226 (multiple myeloma), purchased from Fuxiang Bio-tech Co. Ltd., Shanghai, China.
(§1) 6000 well-growing cells were obtained and inoculated into wells of a 96-well cell culture plate. […] On the next day, the 1-oxo/acylated-14-acylated oridonin derivatives of different concentrations were added and mixed uniformly. The plate was placed in a carbon dioxide cell incubator (5% CO2) at 37° C. and incubated for 72 hours. Then the viable cell concentration was determined by MTT method.

Row | IC50 | IC90 | Structure (SMILES)
1 | 0.31 µg/mL (≈ 0.645 µM) | 1.77 µg/mL (≈ 3.68 µM) | C=C1C(=O)[C@]23[C@H](OC(=O)c4ccc(C)cc4)[C@H]1CC[C@H]2[C@@]12CO[C@@]3(O)[C@@H](O)[C@@H]1C(C)(C)CCC2=O [BS-OR-004]

Tested on: Hep-2
Assay: Solid tumor cell growth inhibition, MTT, 72 h
Assay type: cell-based, human
Settings: Homo sapiens, HEp-2; 72 h, MTT
Method: (§2) 6000 well-growing human solid tumor cells were obtained and inoculated into wells of a 96-well cell culture plate. The culture medium was DMEM High Glucose cell culture medium containing 10% fetal bovine serum. The plate was placed in a carbon dioxide cell incubator (5% CO2) at 37° C. and incubated for 24 hours. After added with 1-oxo/acylated-14-acylated oridonin derivatives of different concentration and mixed uniformly, the plate was placed in a carbon dioxide cell incubator (5% CO2) at 37° C. and incubated for 72 hours. Then the viable cell concentration was determined by MTT method.

Row | IC50 | IC90 | Structure (SMILES)
2 | 1.38 µg/mL (≈ 2.87 µM) | 6.79 µg/mL (≈ 14.1 µM) | C=C1C(=O)[C@]23[C@H](OC(=O)c4ccc(C)cc4)[C@H]1CC[C@H]2[C@@]12CO[C@@]3(O)[C@@H](O)[C@@H]1C(C)(C)CCC2=O [BS-OR-004]

Tested on: MGC-803
Assay: Solid tumor cell growth inhibition, MTT, 72 h
Assay type: cell-based, human
Settings: Homo sapiens, MGC-803; 72 h, MTT
Method: as §2

Row | IC50 | IC90 | Structure (SMILES)
3 | 0.65 µg/mL (≈ 1.35 µM) | 4.88 µg/mL (≈ 10.2 µM) | C=C1C(=O)[C@]23[C@H](OC(=O)c4ccc(C)cc4)[C@H]1CC[C@H]2[C@@]12CO[C@@]3(O)[C@@H](O)[C@@H]1C(C)(C)CCC2=O [BS-OR-004]

Tested on: CNE
Assay: Solid tumor cell growth inhibition, MTT, 72 h
Assay type: cell-based, human
Settings: Homo sapiens, CNE; 72 h, MTT
Method: as §2

Row | IC50 | IC90 | Structure (SMILES)
4 | 0.95 µg/mL (≈ 1.98 µM) | 4.67 µg/mL (≈ 9.72 µM) | C=C1C(=O)[C@]23[C@H](OC(=O)c4ccc(C)cc4)[C@H]1CC[C@H]2[C@@]12CO[C@@]3(O)[C@@H](O)[C@@H]1C(C)(C)CCC2=O [BS-OR-004]

Same assay, conditions: in comparison with oridonin

Row | Structure (SMILES) | anti-CNE activity increased
5 | C=C1C(=O)[C@]23[C@H](OC(=O)c4ccc(C)cc4)[C@H]1CC[C@H]2[C@@]12CO[C@@]3(O)[C@@H](O)[C@@H]1C(C)(C)CCC2=O [BS-OR-004] | ~6 fold

Tested on: Hela
Assay: Solid tumor cell growth inhibition, MTT, 72 h
Assay type: cell-based, human
Settings: Homo sapiens, HeLa; 72 h, MTT
Method: as §2

Row | IC50 | IC90 | Structure (SMILES)
6 | 1.28 µg/mL (≈ 2.66 µM) | 3.87 µg/mL (≈ 8.05 µM) | C=C1C(=O)[C@]23[C@H](OC(=O)c4ccc(C)cc4)[C@H]1CC[C@H]2[C@@]12CO[C@@]3(O)[C@@H](O)[C@@H]1C(C)(C)CCC2=O [BS-OR-004]

Tested on: SK-OV-3
Assay: Solid tumor cell growth inhibition, MTT, 72 h
Assay type: cell-based
Settings: Homo sapiens, SK-OV-3; 72 h, MTT; read-out: IC50 SK-OV-3
Method: as §2

Row | IC50 | Structure (SMILES)
7 | 1.45 µg/mL (≈ 3.02 µM) | C=C1C(=O)[C@]23[C@H](OC(=O)c4ccc(C)cc4)[C@H]1CC[C@H]2[C@@]12CO[C@@]3(O)[C@@H](O)[C@@H]1C(C)(C)CCC2=O [BS-OR-004]

Same assay, conditions: Homo sapiens, SK-OV-3; 72 h, MTT; read-out: IC90 SK-OV-3

Row | IC90 | Structure (SMILES)
8 | 3.94 µg/mL (≈ 8.2 µM) | C=C1C(=O)[C@]23[C@H](OC(=O)c4ccc(C)cc4)[C@H]1CC[C@H]2[C@@]12CO[C@@]3(O)[C@@H](O)[C@@H]1C(C)(C)CCC2=O [BS-OR-004]

Tested on: Hep G2
Assay: Solid tumor cell growth inhibition, MTT, 72 h
Assay type: cell-based
Settings: Homo sapiens, HepG2
Method: as §2

Row | IC50 | IC90 | Structure (SMILES)
9 | 0.85 µg/mL (≈ 1.77 µM) | 7.84 µg/mL (≈ 16.3 µM) | C=C1C(=O)[C@]23[C@H](OC(=O)c4ccc(C)cc4)[C@H]1CC[C@H]2[C@@]12CO[C@@]3(O)[C@@H](O)[C@@H]1C(C)(C)CCC2=O [BS-OR-004]

Tested on: A549
Assay: Solid tumor cell growth inhibition, MTT, 72 h
Assay type: cell-based
Settings: Homo sapiens
Method: as §2

Row | IC50 | IC90 | Structure (SMILES)
10 | 1.71 µg/mL (≈ 3.56 µM) | 4.9 µg/mL (≈ 10.2 µM) | C=C1C(=O)[C@]23[C@H](OC(=O)c4ccc(C)cc4)[C@H]1CC[C@H]2[C@@]12CO[C@@]3(O)[C@@H](O)[C@@H]1C(C)(C)CCC2=O [BS-OR-004]

Tested on: CaEs-17
Assay: Solid tumor cell growth inhibition, MTT, 72 h
Assay type: cell-based
Settings: Homo sapiens, CaEs17
Method: as §2

Row | IC50 | IC90 | Structure (SMILES)
11 | 0.88 µg/mL (≈ 1.83 µM) | 4.58 µg/mL (≈ 9.53 µM) | C=C1C(=O)[C@]23[C@H](OC(=O)c4ccc(C)cc4)[C@H]1CC[C@H]2[C@@]12CO[C@@]3(O)[C@@H](O)[C@@H]1C(C)(C)CCC2=O [BS-OR-004]

Tested on: RKO
Assay: Solid tumor cell growth inhibition, MTT, 72 h
Assay type: cell-based
Settings: Homo sapiens
Method: as §2

Row | IC50 | IC90 | Structure (SMILES)
12 | 0.31 µg/mL (≈ 0.645 µM) | 0.87 µg/mL (≈ 1.81 µM) | C=C1C(=O)[C@]23[C@H](OC(=O)c4ccc(C)cc4)[C@H]1CC[C@H]2[C@@]12CO[C@@]3(O)[C@@H](O)[C@@H]1C(C)(C)CCC2=O [BS-OR-004]

Tested on: Becap-37
Assay: Solid tumor cell growth inhibition, MTT, 72 h
Assay type: cell-based
Settings: Homo sapiens
Method: as §2

Row | IC50 | IC90 | Structure (SMILES)
13 | 0.66 µg/mL (≈ 1.37 µM) | 3.3 µg/mL (≈ 6.87 µM) | C=C1C(=O)[C@]23[C@H](OC(=O)c4ccc(C)cc4)[C@H]1CC[C@H]2[C@@]12CO[C@@]3(O)[C@@H](O)[C@@H]1C(C)(C)CCC2=O [BS-OR-004]

Tested on: MG-63
Assay: Solid tumor cell growth inhibition, MTT, 72 h
Assay type: cell-based
Settings: Homo sapiens
Method: as §2

Row | IC50 | IC90 | Structure (SMILES)
14 | 0.33 µg/mL (≈ 0.687 µM) | 0.87 µg/mL (≈ 1.81 µM) | C=C1C(=O)[C@]23[C@H](OC(=O)c4ccc(C)cc4)[C@H]1CC[C@H]2[C@@]12CO[C@@]3(O)[C@@H](O)[C@@H]1C(C)(C)CCC2=O [BS-OR-004]

Tested on: U87-MG
Assay: Solid tumor cell growth inhibition, MTT, 72 h
Assay type: cell-based
Settings: Homo sapiens, U-87 MG
Method: as §2

Row | IC50 | IC90 | Structure (SMILES)
15 | 0.8 µg/mL (≈ 1.66 µM) | 3.24 µg/mL (≈ 6.74 µM) | C=C1C(=O)[C@]23[C@H](OC(=O)c4ccc(C)cc4)[C@H]1CC[C@H]2[C@@]12CO[C@@]3(O)[C@@H](O)[C@@H]1C(C)(C)CCC2=O [BS-OR-004]

Tested on: PC-3
Assay: Solid tumor cell growth inhibition, MTT, 72 h
Assay type: cell-based
Settings: Homo sapiens
Method: as §2

Row | IC50 | IC90 | Structure (SMILES)
16 | 1.45 µg/mL (≈ 3.02 µM) | 3.94 µg/mL (≈ 8.2 µM) | C=C1C(=O)[C@]23[C@H](OC(=O)c4ccc(C)cc4)[C@H]1CC[C@H]2[C@@]12CO[C@@]3(O)[C@@H](O)[C@@H]1C(C)(C)CCC2=O [BS-OR-004]

Tested on: PANC-1
Assay: Solid tumor cell growth inhibition, MTT, 72 h
Assay type: cell-based
Settings: Homo sapiens
Method: as §2

Row | IC50 | IC90 | Structure (SMILES)
17 | 1.31 µg/mL (≈ 2.73 µM) | 8.24 µg/mL (≈ 17.1 µM) | C=C1C(=O)[C@]23[C@H](OC(=O)c4ccc(C)cc4)[C@H]1CC[C@H]2[C@@]12CO[C@@]3(O)[C@@H](O)[C@@H]1C(C)(C)CCC2=O [BS-OR-004]

Tested on: NB4
Assay: Leukemia cell growth inhibition, MTT, 72 h
Assay type: cell-based, human
Settings: Homo sapiens, NB-4; 72 h, MTT
Description: (§3) Leukemia cell lines: leukemia cell lines: K562/adr (drug-resistant, chronic myeloid leukemia, CML), NB4 (acute promyelocytic leukemia, AML), Kasumi-1 (acute myeloid leukemia M2 type, AML-M2), Jurkat (acute lymphoblastic leukemia, ALL), all of which were donated by Cancer Research Institute of Zhejiang University, China; and H9 (acute lymphoblastic leukemia, ALL), which was purchased from China Center for Type Culture Collection.
as §1, with “6000 well-growing leukemia cells were” for “6000 well-growing cells were”, “C. and was incubated for” for “C. and incubated for”

Row | IC50 | IC90 | Structure (SMILES)
18 | 0.13 µg/mL (≈ 0.271 µM) | 0.76 µg/mL (≈ 1.58 µM) | C=C1C(=O)[C@]23[C@H](OC(=O)c4ccc(C)cc4)[C@H]1CC[C@H]2[C@@]12CO[C@@]3(O)[C@@H](O)[C@@H]1C(C)(C)CCC2=O [BS-OR-004]

Tested on: H9
Assay: Leukemia cell growth inhibition, MTT, 72 h
Assay type: cell-based, human
Settings: Homo sapiens, H9; 72 h, MTT
Description: as §3
as §1, with “6000 well-growing leukemia cells were” for “6000 well-growing cells were”, “C. and was incubated for” for “C. and incubated for”

Row | IC50 | IC90 | Structure (SMILES)
19 | 0.34 µg/mL (≈ 0.708 µM) | 0.83 µg/mL (≈ 1.73 µM) | C=C1C(=O)[C@]23[C@H](OC(=O)c4ccc(C)cc4)[C@H]1CC[C@H]2[C@@]12CO[C@@]3(O)[C@@H](O)[C@@H]1C(C)(C)CCC2=O [BS-OR-004]

Tested on: Jurkat
Assay: Leukemia cell growth inhibition, MTT, 72 h
Assay type: cell-based, human
Settings: Homo sapiens, Jurkat; 72 h, MTT
Description: as §3
as §1, with “6000 well-growing leukemia cells were” for “6000 well-growing cells were”, “C. and was incubated for” for “C. and incubated for”

Row | IC50 | IC90 | Structure (SMILES)
20 | 0.62 µg/mL (≈ 1.29 µM) | 2.7 µg/mL (≈ 5.62 µM) | C=C1C(=O)[C@]23[C@H](OC(=O)c4ccc(C)cc4)[C@H]1CC[C@H]2[C@@]12CO[C@@]3(O)[C@@H](O)[C@@H]1C(C)(C)CCC2=O [BS-OR-004]

Tested on: K562/ADR
Assay: Leukemia cell growth inhibition, MTT, 72 h
Assay type: cell-based
Settings: Homo sapiens
Description: as §3
as §1, with “6000 well-growing leukemia cells were” for “6000 well-growing cells were”, “C. and was incubated for” for “C. and incubated for”

Row | IC50 | IC90 | Structure (SMILES)
21 | 0.41 µg/mL (≈ 0.853 µM) | 1.72 µg/mL (≈ 3.58 µM) | C=C1C(=O)[C@]23[C@H](OC(=O)c4ccc(C)cc4)[C@H]1CC[C@H]2[C@@]12CO[C@@]3(O)[C@@H](O)[C@@H]1C(C)(C)CCC2=O [BS-OR-004]

Tested on: Kasumi-1
Assay: Leukemia cell growth inhibition, MTT, 72 h
Assay type: cell-based
Settings: Homo sapiens
Description: as §3
as §1, with “6000 well-growing leukemia cells were” for “6000 well-growing cells were”, “C. and was incubated for” for “C. and incubated for”

Row | IC50 | IC90 | Structure (SMILES)
22 | 0.41 µg/mL (≈ 0.853 µM) | 1.68 µg/mL (≈ 3.5 µM) | C=C1C(=O)[C@]23[C@H](OC(=O)c4ccc(C)cc4)[C@H]1CC[C@H]2[C@@]12CO[C@@]3(O)[C@@H](O)[C@@H]1C(C)(C)CCC2=O [BS-OR-004]

Source: patent publication US9902736B2, “1-oxo/acylation-14-acylated oridonin derivative, preparation method therefor and application thereof” (HANGZHOU BENSHENG PHARMACEUTICAL CO., LTD., priority 2012, dated 2018)
